# Like-named read-outs stand apart in the source and are kept apart here.
# Experiments:
# [1] = molecular target: EGFR L858R/T790M mutant Ba/F3 cells (Homo sapiens, UniProt P00533, T790M/L858R, cells depend on it); assay: Ba/F3 cell proliferation (Cell Titer Glo); assay type: cell-based, murine; conditions: 72 hours
# Description: All cell lines were maintained in RPMI 1640 (Cellgro; Mediatech Inc., Herndon, CA) supplemented with 10% FBS, 100 units/mL penicillin, 100 units/mL streptomycin. The EGFR I941R mutation was introduced via site directed mutagenesis using the Quick Change Site-Directed Mutagenesis kit (Stratagene; La Jolla, CA) according to the manufacturer's instructions. All constructs were confirmed by DNA sequencing. The constructs were shuttled into the retroviral vector JP1540 using the Cre-recombination system (Agilent Technologies, Santa Clara, CA). Ba/F3 cells were then infected with retrovirus per standard protocols, as described previously (Zhou, et al, Nature 2009). Stable clones were obtained by selection in puromycin (2 μg/ml).
# Growth and inhibition of growth was assessed by the Cell Titer Glo assay (Promega, Madison, WI) and was performed according to the manufacturer's instructions. The Cell Titer Glo assay is a luminescence-based method used to determine the number of viable cells based on quantitation of the ATP present, which is directly proportional to the amount of metabolically active cells present. […] All experimental points were set up in triplicates in 384-well plates and all experiments were repeated at least three times. […] The curves were fitted using a non-linear regression model with a sigmoidal dose response.
# [2] = molecular target: EGFR L858R/T790M (Homo sapiens, UniProt P00533, L858R/T790M); assay: HTRF-based EGFR biochemical assay (L858R/T790M); conditions: 100 μM ATP, enzyme 0.02 nM
# Chain of EGFR L858R/T790M (P00533 25-1210 T790M/L858R): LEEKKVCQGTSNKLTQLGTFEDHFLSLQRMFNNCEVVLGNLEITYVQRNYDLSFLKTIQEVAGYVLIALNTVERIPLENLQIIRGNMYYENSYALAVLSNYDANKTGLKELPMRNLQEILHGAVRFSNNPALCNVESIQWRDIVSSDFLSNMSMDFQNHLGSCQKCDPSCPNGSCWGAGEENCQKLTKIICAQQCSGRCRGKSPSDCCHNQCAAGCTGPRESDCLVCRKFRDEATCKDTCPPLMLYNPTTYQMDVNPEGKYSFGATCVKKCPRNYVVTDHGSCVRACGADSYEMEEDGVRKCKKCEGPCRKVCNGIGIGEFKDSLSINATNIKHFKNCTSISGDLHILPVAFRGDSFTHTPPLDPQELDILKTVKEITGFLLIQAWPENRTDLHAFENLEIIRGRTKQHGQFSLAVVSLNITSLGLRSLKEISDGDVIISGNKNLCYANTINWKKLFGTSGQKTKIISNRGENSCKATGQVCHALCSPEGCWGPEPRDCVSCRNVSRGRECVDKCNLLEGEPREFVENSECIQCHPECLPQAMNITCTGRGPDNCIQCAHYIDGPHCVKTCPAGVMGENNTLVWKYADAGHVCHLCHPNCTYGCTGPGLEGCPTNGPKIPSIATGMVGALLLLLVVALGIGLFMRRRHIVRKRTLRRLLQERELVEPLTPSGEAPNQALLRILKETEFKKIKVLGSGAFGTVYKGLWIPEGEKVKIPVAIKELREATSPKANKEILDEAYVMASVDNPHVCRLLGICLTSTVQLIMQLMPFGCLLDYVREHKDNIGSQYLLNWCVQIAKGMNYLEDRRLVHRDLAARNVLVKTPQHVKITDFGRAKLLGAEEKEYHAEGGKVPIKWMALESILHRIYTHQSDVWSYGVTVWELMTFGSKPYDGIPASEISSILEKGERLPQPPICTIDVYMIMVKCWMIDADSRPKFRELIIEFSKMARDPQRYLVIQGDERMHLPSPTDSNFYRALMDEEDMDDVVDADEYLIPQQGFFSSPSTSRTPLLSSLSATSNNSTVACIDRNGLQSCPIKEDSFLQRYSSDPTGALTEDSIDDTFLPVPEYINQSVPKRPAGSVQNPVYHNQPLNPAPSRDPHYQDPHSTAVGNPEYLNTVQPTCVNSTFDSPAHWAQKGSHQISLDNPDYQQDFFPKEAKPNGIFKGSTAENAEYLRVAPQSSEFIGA
# Experimental: (§1) EGFR biochemical activity measurements were carried out using the homogeneous time-resolved fluorescence (HTRF) assay (Cisbio). Inhibitors and DMSO normalizations were first dispensed to empty black low-volume 384-well plates (Corning) with D300 digital liquid dispenser (HP). All reactions were carried out at room temperature and solutions were added to plates with a Multidrop Combi Reagent Dispenser (ThermoFisher). The reaction mixture (10 μL final volume) contained 1 μM tyrosine kinase peptide-biotin substrate and mutant EGFR in a reaction buffer (50 mM HEPES pH 7.0, 5 mM MgCl2, 1 mM MnCl2, 0.01% BSA, 2 mM TCEP, 0.1 mM NaVO4). […] Enzyme reaction solution (2× concentrations, 5 μL) was added to 384-well plates containing compounds and incubated for 30 mins. Enzyme reactions were initiated with the addition of 5 μL of ATP to a final concentration of 100 μM and reacted for 20 mins.
# [3] = molecular target: EGFR L858R (Homo sapiens, UniProt P00533, L858R); assay: HTRF-based EGFR biochemical assay (L858R); conditions: 100 μM ATP, enzyme 0.1 nM
# Chain of EGFR L858R (P00533 25-1210 L858R): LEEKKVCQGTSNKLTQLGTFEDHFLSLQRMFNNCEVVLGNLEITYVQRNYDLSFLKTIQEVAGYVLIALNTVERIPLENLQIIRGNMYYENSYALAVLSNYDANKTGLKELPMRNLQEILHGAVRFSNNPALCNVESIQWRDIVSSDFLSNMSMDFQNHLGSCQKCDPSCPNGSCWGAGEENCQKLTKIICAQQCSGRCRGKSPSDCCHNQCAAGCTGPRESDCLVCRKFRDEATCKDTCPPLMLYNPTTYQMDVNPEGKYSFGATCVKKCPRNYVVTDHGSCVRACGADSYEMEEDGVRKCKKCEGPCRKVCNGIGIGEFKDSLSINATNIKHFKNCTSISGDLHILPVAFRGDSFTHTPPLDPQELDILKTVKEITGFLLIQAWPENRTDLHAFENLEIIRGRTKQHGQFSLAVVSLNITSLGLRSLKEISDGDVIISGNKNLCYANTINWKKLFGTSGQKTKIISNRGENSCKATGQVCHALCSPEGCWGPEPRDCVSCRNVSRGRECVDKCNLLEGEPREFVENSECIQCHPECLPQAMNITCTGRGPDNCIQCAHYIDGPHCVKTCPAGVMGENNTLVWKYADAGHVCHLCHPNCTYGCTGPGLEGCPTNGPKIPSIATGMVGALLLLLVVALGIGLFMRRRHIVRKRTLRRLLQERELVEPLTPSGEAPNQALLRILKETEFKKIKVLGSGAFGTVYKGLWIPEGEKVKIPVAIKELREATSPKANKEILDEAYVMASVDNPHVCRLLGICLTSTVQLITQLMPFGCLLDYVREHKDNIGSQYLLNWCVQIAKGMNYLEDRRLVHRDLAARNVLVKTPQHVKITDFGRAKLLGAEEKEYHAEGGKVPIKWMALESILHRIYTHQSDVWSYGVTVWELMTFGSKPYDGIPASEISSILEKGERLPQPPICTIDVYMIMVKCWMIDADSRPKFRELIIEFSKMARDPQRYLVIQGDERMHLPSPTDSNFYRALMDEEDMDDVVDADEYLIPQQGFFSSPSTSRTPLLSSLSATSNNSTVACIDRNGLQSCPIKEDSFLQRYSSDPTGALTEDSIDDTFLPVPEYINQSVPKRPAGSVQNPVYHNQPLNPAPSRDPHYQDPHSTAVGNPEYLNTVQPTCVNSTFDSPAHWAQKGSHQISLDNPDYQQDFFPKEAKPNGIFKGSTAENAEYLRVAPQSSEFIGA
# Experimental: as §1, with “20 mins. Reactions were quenched with the addition of 10 μL of phospho-tyrosine antibody-Europium(III) cryptate (1-to-180 volume ratio) and Streptavidin-XL665 (46.7 nM) in EDTA-containing detection buffer, then incubated at room temperature for 1 hour, and read with a PHERAstar plate reader (excitation=337 nm, emission=620 nm and 665 nm).” for “20 mins.”
# [4] = in combination with 1 μg/ml cetuximab, read-out: Cell IC50 BaF3 L858R/T790M compound + cetuximab
# [5] = single agent, read-out: Cell IC50 EGFR BaF3 L858R/T790M
# Chain of EGFR L858R/T790M mutant Ba/F3 cells (P00533 whole entry T790M/L858R): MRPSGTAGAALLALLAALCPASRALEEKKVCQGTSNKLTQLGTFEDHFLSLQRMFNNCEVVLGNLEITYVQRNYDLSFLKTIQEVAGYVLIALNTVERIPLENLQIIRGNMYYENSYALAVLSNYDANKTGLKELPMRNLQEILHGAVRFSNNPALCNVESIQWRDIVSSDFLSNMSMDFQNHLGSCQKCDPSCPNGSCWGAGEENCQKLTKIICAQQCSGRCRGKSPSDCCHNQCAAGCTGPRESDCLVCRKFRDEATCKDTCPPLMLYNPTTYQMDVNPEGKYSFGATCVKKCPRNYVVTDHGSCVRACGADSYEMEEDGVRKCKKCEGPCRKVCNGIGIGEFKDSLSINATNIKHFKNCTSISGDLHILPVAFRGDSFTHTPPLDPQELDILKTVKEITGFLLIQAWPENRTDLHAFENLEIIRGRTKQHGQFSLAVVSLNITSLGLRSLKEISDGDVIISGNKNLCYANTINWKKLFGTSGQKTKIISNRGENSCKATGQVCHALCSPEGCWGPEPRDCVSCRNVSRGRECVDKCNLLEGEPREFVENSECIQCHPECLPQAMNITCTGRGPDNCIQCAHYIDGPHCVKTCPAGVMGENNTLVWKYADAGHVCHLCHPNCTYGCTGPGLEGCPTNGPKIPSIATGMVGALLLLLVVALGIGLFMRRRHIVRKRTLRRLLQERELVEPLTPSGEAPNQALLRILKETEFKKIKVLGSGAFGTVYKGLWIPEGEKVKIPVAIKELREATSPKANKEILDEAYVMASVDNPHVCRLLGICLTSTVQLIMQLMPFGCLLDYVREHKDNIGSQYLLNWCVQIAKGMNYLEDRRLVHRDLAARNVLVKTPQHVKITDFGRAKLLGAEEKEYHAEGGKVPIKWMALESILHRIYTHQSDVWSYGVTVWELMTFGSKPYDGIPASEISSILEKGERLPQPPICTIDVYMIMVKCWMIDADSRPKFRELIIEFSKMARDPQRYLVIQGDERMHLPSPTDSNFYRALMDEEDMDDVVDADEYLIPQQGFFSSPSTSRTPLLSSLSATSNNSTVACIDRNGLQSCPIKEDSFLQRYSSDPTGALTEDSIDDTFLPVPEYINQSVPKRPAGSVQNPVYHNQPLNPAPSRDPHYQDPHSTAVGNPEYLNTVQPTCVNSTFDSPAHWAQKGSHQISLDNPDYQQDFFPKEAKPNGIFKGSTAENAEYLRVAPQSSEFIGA
SMILES,"GI50 [1, 4] [nM]","GI50 [1, 5] [nM]",IC50 [2] [nM],IC50 [3] [nM]
"O=C(Nc1nccs1)C(c1ccccc1)n1cnc2ccc(C#Cc3cccnc3)cc2c1=O (centres unmarked) [Compound 061, 2-(4-Oxo-6-(pyridin-3-ylethynyl)quinazolin-3(4H)-yl)-2-phenyl-N-(thiazol-2-yl)acetamide]",28,4520,–,–
"CN1CCN(c2ccc(-c3ccc4ncn(C(C(=O)Nc5nccs5)c5c(O)cccc5F)c(=O)c4c3)cc2)CC1 (centres unmarked) [Compound 085, 2-(2-Fluoro-6-hydroxyphenyl)-2-(6-(4-(4-methylpiperazin-1-yl)phenyl)-4-oxoquinazolin-3(4H)-yl)-N-(thiazol-2-yl)acetamide]",66,5770,3,6
"CN1CCC(c2ccc(-c3ccc4cnn(C(C(=O)Nc5nccs5)c5ccccc5)c(=O)c4c3)cc2)CC1 (centres unmarked) [Compound 042, 2-(7-(4-(1-Methylpiperidin-4-yl)-phenyl)-1-oxophtharazin-2(1H)-yl)-2-phenyl-N-(thiazol-2-yl)acetamide]",250,1460,4,35
"O=C(Nc1nccs1)C(c1ccccc1)n1cnc2cc(Br)ccc2c1=O (centres unmarked) [Compound 001, 2-(7-Bromo-4-oxoquinazolin-3(4H)-yl)-2-phenyl-N-(thiazol-2-yl)acetamide]",8300,> 10000,62,1260
"CN1CCN(c2ccc(-c3ccc4ncn(C(C(=O)Nc5ccccn5)c5cccc(F)c5)c(=O)c4c3)cc2)CC1 (centres unmarked) [Compound 033, 2-(3-Fluorophenyl)-2-(6-(4-(4-methyl-piperazin-1-yl)phenyl)-4-oxo-quinazolin-3(4H)-yl)-N-(pyridin-2-yl)-acetamide]",44,1550,2,51
"CN1CCC(c2ccc(-c3ccc4c(=O)n(C(C(=O)Nc5nccs5)c5ccccc5)ncc4c3)cc2)CC1 (centres unmarked) [Compound 026, 2-(6-(4-(1-Methylpiperidin-4-yl)-phenyl)-1-oxophthalazin-2(1H)-yl)-2-phenyl-N-(thiazol-2-yl)acetamide]",560,1220,10,67
"CN1CCC(c2ccc(-c3ccc4ncn(C(C(=O)Nc5nccs5)c5ccccc5)c(=O)c4n3)cc2)CC1 (centres unmarked) [Compound 073, 2-(6-(4-(1-Methylpiperidin-4-yl)-phenyl)-4-oxopyrido[3,2-d]-pyrimidin-3(4H)-yl)-2-phenyl-N-(thiazol-2-yl)acetamide]",15,1940,0.6,7
"CN1CCC(c2ccc(-c3ccc4c(=O)n(C(C(=O)Nc5nccs5)c5cccc(F)c5)ccc4c3)cc2)CC1 (centres unmarked) [Compound 025, 2-(3-Fluorophenyl)-2-(6-(4-(1-methyl-piperidin-4-yl)phenyl)-1-oxo-isoquinolin-2(1H)-yl)-N-(thiazol-2-yl)-acetamide]",20,900,3,5
"CN1CCC(c2ccc(-c3ccc4ncn(C(C(=O)Nc5nccs5)c5cc(F)ccc5O)c(=O)c4n3)cc2)CC1 (centres unmarked) [Compound 084, 2-(5-Fluoro-2-hydroxyphenyl)-2-(6-(4-(1-methylpiperidin-4-yl)phenyl)-4-oxopyrido[3,2-d]pyrimidin-3(4H)-yl)-N-(thiazol-2-yl)acetamide]",48,860,0.1,0.4
"O=C(Nc1nccs1)C(c1ccccc1)n1ncc2ccc(Br)cc2c1=O (centres unmarked) [Compound 041, 2-(7-Bromo-1-oxophthalazin-2(1H)-yl)-2-phenyl-N-(thiazol-2-yl)-acetamide]",> 10000,> 10000,31,> 1000
"CN1CCC(c2ccc(-c3ccc4ncn(C(C(=O)Nc5nccs5)c5ccccc5F)c(=O)c4c3)cc2)CC1 (centres unmarked) [Compound 066, 2-(2-Fluorophenyl)-2-(6-(4-(1-methylpiperidin-4-yl)phenyl)-4-oxo-quinazolin-3(4H)-yl)-N-(thiazol-2-yl)-acetamide]",20,1880,0.2,2
"CN1CCN(c2ccc(-c3ccc4ncn(C(C(=O)Nc5nccs5)c5ccccc5)c(=O)c4c3)cc2)CC1 (centres unmarked) [Compound 015, 2-(6-(4-(4-Methylpiperazin-1-yl)-phenyl)-4-oxoquinazolin-3(4H)-yl)-2-phenyl-N-(thiazol-2-yl)acetamide]",20,2320,1,7
"CN1CCC(c2ccc(-c3ccc4ncn(C(C(=O)Nc5ccccn5)c5cccc(F)c5)c(=O)c4c3F)cc2)CC1 (centres unmarked) [Compound 074, 2-(5-Fluoro-6-(4-(1-methylpiperidin-4-yl)phenyl)-4-oxoquinazolin-3-(4H)-yl)-2-(3-fluorophenyl)-N-(pyridin-2-yl)acetamide]",22,2350,0.6,6
"O=C(Nc1nccs1)C(c1cccc(F)c1)n1ccc2cc(Br)ccc2c1=O (centres unmarked) [Compound 008, 2-(6-Bromo-1-oxoisoquinolin-2(1H)-yl)-2-(3-fluorophenyl)-N-(thiazol-2-yl)acetamide]",2500,> 10000,64,> 1000
"Cc1nc2ccc(-c3ccc(N4CCN(C)CC4)cc3)cc2c(=O)n1C(C(=O)Nc1nccs1)c1ccccc1 (centres unmarked) [Compound 045, 2-(2-Methyl-6-(4-(4-methylpiperazin-1-yl)phenyl)-4-oxoquinazolin-3(4H)-yl)-2-phenyl-N-(thiazol-2-yl)-acetamide]",4100,4100,297,> 1000
"CN1CCC(c2ccc(-c3ccc4c(F)cn(C(C(=O)Nc5nccs5)c5ccccc5)c(=O)c4c3)cc2)CC1 (centres unmarked) [Compound 036, 2-(4-Fluoro-7-(4-(1-methylpiperidin-4-yl)phenyl)-1-oxoisoquinolin-2(1H)-yl)-2-phenyl-N-(thiazol-2-yl)acetamide]",23,920,0.3,4
"CN1CCN(c2ccc(-c3ccc4ncn(C(C(=O)Nc5nccs5)c5cccc(F)c5)c(=O)c4c3)cc2)CC1 (centres unmarked) [Compound 031, 2-(3-Fluorophenyl)-2-(6-(4-(4-methyl-piperazin-1-yl)phenyl)-4-oxo-quinazolin-3(4H)-yl)-N-(thiazol-2-yl)-acetamide]",10,1350,0.2,2
"CN1CCN(c2ccc(-c3ccc4ncn(C(C(=O)Nc5nccs5)c5cccnc5)c(=O)c4c3)cc2)CC1 (centres unmarked) [Compound 064, 2-(6-(4-(4-Methylpiperazin-1-yl)-phenyl)-4-oxoquinazolin-3(4H)-yl)-2-(pyridin-3-yl)-N-(thiazol-2-yl)-acetamide]",490,6150,5,78
"CN1CCC(c2ccc(-c3ccc4ccn(C(C(=O)Nc5nccs5)c5cccc(F)c5)c(=O)c4c3)cc2)CC1 (centres unmarked) [Compound 024, 2-(3-Fluorophenyl)-2-(7-(4-(1-methylpiperidin-4-yl)phenyl)-1-oxoisoquinolin-2(1H)-yl)-N-(thiazol-2-yl)-acetamide]",90,1770,1,7

# From patent publication US12622909B2, “Allosteric EGFR inhibitors and methods of use thereof” (Dana-Farber Cancer Institute, Inc., priority 2019, dated 2026)
